The results in this text go back to PubChem BioAssay (NCI).

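Briefly, cells in 96-well plates were exposed to five compound concentrations for 48 h, and endpoints were estimated by linear interpolation. GI50 marks 50% less growth. TGI denotes the concentration required for complete inhibition of growth.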

What all share (test): NCI anticancer screen, dose series, 48 h
The test system of assay [1] is NCI-H522 lung.
For assay [2], the system named is SF-539 CNS.
In assay [3] the test system is BT-549 breast.
Assay [4] concerns SK-MEL-28 melanoma.
The test system of assay [5] is MOLT-4 leukemia.
Assay [6] deals with HCC-2998 colon.
Assay [7] deals with RXF 393 renal.
The test system of assay [8] is KM12 colon.
Assay [9] concerns HOP-92 NSCLC.
The subject of assay [10] is HS 578T breast.

As to `CC(F)(F)c1cc(F)ccc1-c1sc2cc(O)ccc2c1Oc1ccc(/C=C/C(=O)O)cc1`, the GI50 in assay [1] was 6230 nM; in [2], 5950 nM; in [3], 6.46 µM; in assay [4], 5.79 µM; in [5] it was 10300 nM; in assay [6], 12700 nM. Also, the GI50 was 2890 nM in [7], 4720 nM in assay [8], 11100 nM in [9] and 4.89 µM in assay [10]. Also, the TGI in assay [1] is 29 µM; in assay [2], 21 µM; in assay [3], 27 µM; in [4], 18.9 µM; in assay [5] it was 50 µM; in assay [6], 30.6 µM. Also, the TGI came to 14.5 µM in assay [7], 18.4 µM in assay [8], 27.3 µM in assay [9] and 32.8 µM in assay [10].

Take `CN(C)CCOc1nc2c3cccnc3cc(-c3cccc(Cl)c3)c2c2ncccc12`: the GI50 is 1470 nM in [1]; 1650 nM in [2]; 6.11 µM in assay [3]; 1.65 µM in assay [4]; 488 nM in assay [5]; 1430 nM in assay [6]. Besides, the GI50 in assay [7] was 1390 nM; in [8], 1390 nM; in [9] it was 2040 nM; in assay [10], 1.97 µM. The TGI stood at 3.06 µM in assay [1]; 3.08 µM in assay [2]; 19.9 µM in [3]; 3.07 µM in assay [4]; 2.41 µM in assay [5]; 2.93 µM in [6]. Also, the TGI worked out at 2.8 µM in assay [7], 3.03 µM in assay [8], 8.42 µM in assay [9] and 5.06 µM in assay [10].

As for `CCCC(=O)NC(c1ccc2c(c1)OCO2)c1ccc2cccnc2c1O` (stereo not given), the GI50 in [1] is 1630 nM; in assay [2] it was 1410 nM; in assay [3], 2.09 µM; in assay [4] it was 3.03 µM; in [5], 441 nM; in [6], 2210 nM. The GI50 in [7] is 1470 nM; in assay [8], 2090 nM; in assay [9], 1550 nM; in assay [10] it was 5.76 µM. The TGI in assay [1] was > 100 µM; in assay [2] it was > 100 µM; in assay [3], 83.7 µM; in [4] it was > 100 µM; in assay [5], > 100 µM; in assay [6], > 100 µM. The TGI in [7] is 7.54 µM; in [8] it was > 100 µM; in [9], 36.1 µM; in [10], 78.8 µM.

As to `CS(=O)c1ccc(-c2nc(-c3ccc(F)cc3)c(-c3ccncc3)[nH]2)cc1` (stereo not given), the GI50 in [1] was 28800 nM; in assay [2], 44800 nM; in assay [3], 21 µM; in assay [4], 17.1 µM; in assay [5], 28300 nM; in assay [6] it was 33600 nM. Moreover, the GI50 in [7] is 15700 nM; in assay [8], 35900 nM; in assay [9], 28800 nM; in [10] it was 33.3 µM. The TGI in assay [1] is > 85.6 µM; in [2], > 100 µM; in assay [3], 72.4 µM; in assay [4], 66.3 µM; in assay [5], > 96.4 µM; in [6], > 89.7 µM. Also, the TGI in assay [7] was 39.3 µM; in assay [8] it was > 100 µM; in assay [9], > 100 µM; in assay [10], > 100 µM.

As for `O=C(O)c1ccc(-c2ccc(C(=O)O)cc2I)c(I)c1`, the GI50 was > 100000 nM in assay [1]; > 100000 nM in [2]; > 100 µM in [3]; > 100 µM in assay [4]; > 100000 nM in [5]; > 100000 nM in assay [6]. Further, the GI50 was > 100000 nM in assay [7], > 100000 nM in [8], > 100000 nM in assay [9] and > 100 µM in [10]. The TGI in assay [1], in assay [2], in assay [3], in assay [4], in assay [5] and in assay [6] was > 100 µM each time. Besides, the TGI in [7], in assay [8], in [9] and in [10] was > 100 µM each time.

For `COc1ccc(/C(Cl)=C(\C=O)c2ccc(OC)c(OC)c2)cc1OC`, the TGI in [1], in assay [2], in assay [3], in [4], in [5] and in [6] was > 100 µM throughout. Moreover, the TGI in assay [7] is 99.7 µM; in [8], > 100 µM; in assay [9], > 100 µM; in assay [10], > 100 µM.

Regarding `CCCCCCNC(=O)Oc1ccc(/C(=C(\C)c2ccccc2)c2ccc(OCCN3CCCCC3)cc2)cc1`, the GI50 is 1910 nM in assay [1]; 1750 nM in [2]; 2.38 µM in assay [3]; 2.06 µM in assay [4]; 2680 nM in assay [5]; 2960 nM in [6]. For the same compound, the GI50 in assay [7] was 1520 nM; in assay [8] it was 2610 nM; in assay [9], 1510 nM; in assay [10], 2.71 µM. Besides, the TGI stood at 4.07 µM in assay [1]; 3.22 µM in assay [2]; 7.1 µM in assay [3]; 4.41 µM in assay [4]; 9.66 µM in [5]; 8.92 µM in assay [6]. Moreover, the TGI amounted to 3.32 µM in assay [7], 7.63 µM in [8], 5.04 µM in [9] and 13.4 µM in assay [10].

Take `C=C1C(=O)O[C@H]2[C@H]1[C@H](OC(=O)/C(C)=C\C)C[C@]1(CO1)[C@@H]1[C@H](OC(C)=O)C=C(C)[C@]21O`: the TGI in assay [1] is 16.8 µM; in [2], > 93.9 µM; in [3], 24.4 µM; in assay [4] it was 30.6 µM; in assay [5] it was 25.6 µM; in [6], 35.5 µM. Moreover, the TGI was 25.6 µM in assay [7], 41.4 µM in assay [8], 30.3 µM in [9] and > 100 µM in assay [10].

In the case of `Cc1ccccc1-n1c(/C=C\c2ccccn2)nc2ccccc2c1=O`, the GI50 in [1] was 5700 nM; in [2], 18600 nM; in [3], 7.44 µM; in assay [4], 18.4 µM; in [5] it was 6160 nM; in [6] it was 15900 nM. The GI50 in assay [7] was 4330 nM; in assay [8], 11100 nM; in [9], 3320 nM; in assay [10] it was 15.5 µM. Besides, the TGI in assay [1] worked out at 39.1 µM; in assay [2] it was 55 µM; in assay [3], 22.3 µM; in assay [4], 39.8 µM; in [5], 27.7 µM; in [6] it was 29.9 µM. Also, the TGI in assay [7] was 20 µM; in assay [8], 27.9 µM; in [9], 67.1 µM; in assay [10], > 100 µM.

Take `BrC(Br)(Br)c1cnc2ccccc2n1`: the GI50 is 544 nM in [1]; 2210 nM in assay [2]; 2.4 µM in [3]; 1.85 µM in assay [4]; 2460 nM in [5]; 1670 nM in assay [6]. Moreover, the GI50 in assay [7] is 1060 nM; in [8], 2370 nM; in [9] it was 1500 nM; in assay [10], 2.47 µM. Moreover, the TGI in assay [1] came to 1.28 µM; in [2], 4.86 µM; in assay [3], 6.84 µM; in [4], 4.24 µM; in assay [5] it was 8.54 µM; in [6], 3.6 µM. The TGI in [7] was 2.4 µM; in [8] it was 7.7 µM; in [9] it was 3.14 µM; in assay [10] it was 7 µM.

As for `O=C1/C(=C/c2ccc([N+](=O)[O-])s2)Oc2ccccc21`, the GI50 in assay [1] is 189 nM; in assay [2] it was 654 nM; in assay [3], 0.745 µM; in assay [4], 1.25 µM; in [5], 654 nM; in [6], 1420 nM. For the same compound, the GI50 in [7] is 1100 nM; in assay [8], 352 nM; in assay [9], 557 nM; in assay [10], 0.882 µM. The TGI in assay [1] was determined as 0.382 µM; in [2] it was 2.1 µM; in [3] it was 1.98 µM; in [4], 2.65 µM; in assay [5] it was 3.23 µM; in assay [6], 2.89 µM. Also, the TGI was 2.85 µM in assay [7], 1.28 µM in assay [8], 2.29 µM in [9] and > 48.6 µM in assay [10].
